The values below come from patent US20230346883A1, “COMPOSITIONS FOR AND METHODS OF TREATMENT WITH MUTANT A1 ADENOSINE RECEPTOR PLASMID cDNAs” (Endacea, Inc., priority 2022, published 2023).

In this test the test system is PC3 Tumors (Human Prostate Carcinoma). The test is described as follows: Treatment of PC3 xenograft tumors in athymic nude mice, tumor volume. In kind it is in vivo. Conditions: dosed twice/week. Here is the method: • 1. Animals: • 46 Athymic nude mice (ENVIGO, male, 5-6 weeks old, R #: 4269, PO #: 236172) were used in this study. All mice were ear tagged for identification purposes. • 2. Animal Husbandry: • Upon arrival, animals were examined to ensure that they were healthy. The animals were housed in autoclaved solid floor polycarbonate cages. Housing and sanitation were performed. All animal handling was performed in a laminar flow hood. Animals were housed in filter-topped cages within a HEPA filtered clean room. • 3. Cell Culture and Implantation: • PC3 cell line was obtained from American Type Culture Collection (Manassas, VA). The cells were cultured in 75 cm^2 flask containing Eagle's Minimum Essential Medium supplemented with 10% fetal bovine calf serum (FBS) and incubated at 37° C. in humidified atmosphere of 5% CO2. As cells became 80% confluent, cultures were expanded to 150 cm^2 flasks, and expanded further until sufficient cells were available for injection. • Cancer cells were subcutaneously injected into right flank, 10 million cells/each mouse for PC3 cells. • 4. Assignment to Treatment Groups: • The animals were ear tagged for identification purposes. The animals were assigned to 4 study groups with 10 mice in each group based upon tumor volume. • 5. The mice were dosed twice a week for 6 weeks.
The Paclitaxel was stored at ambient temperature. Lipid nanoparticle (LNP) suspensions were stored at 4° C. Unopened vials were maintained in their original container at 4° C. until ready for use. 50 μl of LNP treatment was drawn via large bore needle (16G needle) from vial. All LNP treatments were allowed to reach room temperature by standing at ambient temperature. There was no heating. The large bore needle was replaced with a small-bore needle (25G) for tumor injection. • 6. Tumor Monitoring: • The xenograft tumors were measured three times a week with a digital caliper. • Tumor volumes were calculated using the formula:
Tumor Volume=length×width×width×½ • 7. Statistical Analysis: • Tumor sizes and body weights were analyzed using Student's t-test. P values <0.05 were considered as statistically significant.

For `CC(=O)O[C@H]1C(=O)[C@@]2(C)[C@H]([C@H](OC(=O)c3ccccc3)[C@]3(O)C[C@H](OC(=O)[C@H](O)[C@@H](NC(=O)c4ccccc4)c4ccccc4)C(C)=C1C3(C)C)[C@]1(OC(C)=O)CO[C@@H]1C[C@@H]2O` [Paclitaxel], the “Average Tumor Volume (Mean)” value (therapy day 0) came out at 108.0 Mm^3; the “Average Tumor Volume (Mean)” value (therapy day 3) is recorded as 105.7 Mm^3; the “Average Tumor Volume (Mean)” value (therapy day 5) is 111.7 Mm^3; the “Average Tumor Volume (Mean)” value (therapy day 7) is 129.6 Mm^3; the “Average Tumor Volume (Mean)” value (therapy day 10) turned out to be 108.4 Mm^3; the “Average Tumor Volume (Mean)” value (therapy day 12) stood at 98.1 Mm^3. The “Average Tumor Volume (Mean)” value amounted to 84.2 Mm^3 (therapy day 14); 66.6 Mm^3 (therapy day 17); 61.8 Mm^3 (therapy day 19); 56.6 Mm^3 (therapy day 21); 48.7 Mm^3 (therapy day 24); 34.6 Mm^3 (therapy day 26). The “Average Tumor Volume (Mean)” value (therapy day 28) worked out at 31.1 Mm^3; the “Average Tumor Volume (Mean)” value (therapy day 31) came to 26.6 Mm^3; the “Average Tumor Volume (Mean)” value (therapy day 35) was 25.3 Mm^3; the “Average Tumor Volume (Mean)” value (therapy day 38) amounted to 24.4 Mm^3; the “Average Tumor Volume (Mean)” value (therapy day 40) was determined as 24.2 Mm^3; the “Average Tumor Volume (Mean)” value (therapy day 42) was found to be 27.2 Mm^3. The “Average Tumor Volume (Mean)” value (therapy day 45) stood at 17.8 Mm^3.
